Among the data in patent US20180194762A1 (Pharmacyclics LLC, priority 2017, published 2018) are IC50 and TEC/Btk values, retold here.

What all share (assay type): biochemical
Assay [1] addresses T1, Btk (Homo sapiens, UniProt Q06187).
T1 construct: purified from insect cells as a full-length construct containing a N-terminal 6X-His tag; His6 (N); made in house; host or cells: insect cells (Method C)
Put plainly: Btk in vitro inhibitory activity (one of Method A TR-FRET, Method B electrophoretic mobility shift, Method C radiometric filter binding). In short, it runs like this:
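Three alternative formats were used. A radiometric filter-binding read used 8 nM full-length His-BTK with 0.2 mg/mL poly(Glu-Tyr) 4:1 (C); microfluidic separation of 1 μM FAM-peptide by 1 nM BTK gave IC50 from 12-point curves (B); TR-FRET at Km ATP, 0.5 nM Btk, gave Ki(app)-derived IC50 (A).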

In assay [2] the target is T2, TEC (Homo sapiens, UniProt P42680).
T2 sequence (P42680 1-631): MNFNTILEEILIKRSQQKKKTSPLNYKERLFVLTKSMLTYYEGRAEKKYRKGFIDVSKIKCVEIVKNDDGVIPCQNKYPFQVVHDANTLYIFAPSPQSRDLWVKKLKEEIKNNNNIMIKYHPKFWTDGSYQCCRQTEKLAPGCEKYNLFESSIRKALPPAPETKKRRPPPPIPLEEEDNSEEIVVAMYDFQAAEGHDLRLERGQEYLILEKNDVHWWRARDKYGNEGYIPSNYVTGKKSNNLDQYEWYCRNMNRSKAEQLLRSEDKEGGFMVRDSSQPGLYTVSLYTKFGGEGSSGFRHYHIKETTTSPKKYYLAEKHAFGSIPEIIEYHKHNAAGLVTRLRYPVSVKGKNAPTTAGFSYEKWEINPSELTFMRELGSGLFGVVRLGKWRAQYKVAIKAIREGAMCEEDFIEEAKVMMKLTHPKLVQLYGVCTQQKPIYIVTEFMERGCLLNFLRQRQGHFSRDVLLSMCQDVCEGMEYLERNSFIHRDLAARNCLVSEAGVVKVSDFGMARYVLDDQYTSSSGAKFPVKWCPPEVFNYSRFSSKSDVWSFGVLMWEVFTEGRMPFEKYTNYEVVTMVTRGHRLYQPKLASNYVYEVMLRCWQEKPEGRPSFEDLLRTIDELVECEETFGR
Put plainly: Inhibition of a panel of kinases (in vitro HotSpot kinase assay, 33P-ATP, 1 μM ATP). As to conditions: for IC50: HotSpot kinase assay, 1 μM ATP; for TEC/Btk: ratio of TEC IC50 to Btk IC50 (selectivity). The gist of the method: (§1)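 At 1 μM ATP spiked with 33P-ATP, substrate phosphorylation by the purified enzymes gives the extent of inhibition.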

Assay [3] has as its target T3, panel of kinases (Homo sapiens, UniProt P51813).
T3 sequence (P51813 1-675): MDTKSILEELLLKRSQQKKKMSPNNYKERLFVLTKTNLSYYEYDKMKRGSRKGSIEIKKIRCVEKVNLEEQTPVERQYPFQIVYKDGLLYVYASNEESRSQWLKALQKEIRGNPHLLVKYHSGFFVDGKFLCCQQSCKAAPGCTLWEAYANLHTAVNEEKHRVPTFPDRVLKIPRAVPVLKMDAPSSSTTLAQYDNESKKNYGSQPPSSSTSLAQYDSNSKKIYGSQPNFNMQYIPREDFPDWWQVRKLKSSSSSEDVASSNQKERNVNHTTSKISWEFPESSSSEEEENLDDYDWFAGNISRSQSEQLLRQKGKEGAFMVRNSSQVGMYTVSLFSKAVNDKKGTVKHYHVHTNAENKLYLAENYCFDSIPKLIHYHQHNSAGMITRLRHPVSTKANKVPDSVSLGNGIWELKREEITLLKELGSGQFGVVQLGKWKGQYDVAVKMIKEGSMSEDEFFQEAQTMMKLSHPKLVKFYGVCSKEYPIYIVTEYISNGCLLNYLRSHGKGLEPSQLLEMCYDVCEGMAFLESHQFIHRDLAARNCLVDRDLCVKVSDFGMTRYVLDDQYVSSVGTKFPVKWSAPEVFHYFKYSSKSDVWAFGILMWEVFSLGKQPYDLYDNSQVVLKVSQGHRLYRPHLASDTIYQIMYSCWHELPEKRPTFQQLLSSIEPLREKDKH
The assay can be described thus: Inhibition of a panel of kinases (in vitro HotSpot kinase assay, 33P-ATP, 1 μM ATP), other kinases. As to conditions: BMX wild-type, read-out: BMX-WT IC50. The gist of the method: as §1

Where [4] appears, read: wild-type Btk, read-out: Btk-WT IC50.
The mark [5] stands for this setting: method is one of A, B or C, not stated which, read-out: IC50 values against Btk.

Like-named read-outs stand apart in the source and are kept apart here. Where only a bound is given, the exact number is not on record here.

T1 sequence (Q06187 whole entry): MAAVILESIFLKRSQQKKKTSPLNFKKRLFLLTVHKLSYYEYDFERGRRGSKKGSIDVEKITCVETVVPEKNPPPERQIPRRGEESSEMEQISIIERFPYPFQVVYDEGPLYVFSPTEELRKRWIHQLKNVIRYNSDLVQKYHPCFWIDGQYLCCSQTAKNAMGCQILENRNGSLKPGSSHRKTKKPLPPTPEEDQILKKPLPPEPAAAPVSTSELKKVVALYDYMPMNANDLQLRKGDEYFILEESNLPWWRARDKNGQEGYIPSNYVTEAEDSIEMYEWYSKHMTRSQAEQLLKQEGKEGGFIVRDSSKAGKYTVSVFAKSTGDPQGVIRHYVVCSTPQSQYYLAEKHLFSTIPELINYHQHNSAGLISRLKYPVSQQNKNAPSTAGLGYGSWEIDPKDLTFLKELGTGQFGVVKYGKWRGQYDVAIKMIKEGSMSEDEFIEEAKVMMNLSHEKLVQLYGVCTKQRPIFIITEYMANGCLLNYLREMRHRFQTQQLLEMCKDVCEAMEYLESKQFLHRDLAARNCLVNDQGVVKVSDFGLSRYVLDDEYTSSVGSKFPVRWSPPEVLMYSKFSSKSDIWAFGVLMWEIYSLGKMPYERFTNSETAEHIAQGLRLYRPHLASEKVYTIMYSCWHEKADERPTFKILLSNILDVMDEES

For the compound `C=CC(=O)N1CC[C@@H](Nc2n[nH]c3nccc(-c4ccc(CNC(=O)c5ccc(C(=C)C)cc5)c(F)c4)c23)C1` [Compound 47, (R)—N-(4-(3-((1-acryloylpyrrolidin-3-yl)amino)-1H-pyrazolo[3,4-b]pyridin-4-yl)-2-fluorobenzyl)-4-(prop-1-en-2-yl)benzamide], the IC50 in assay [1] (setting [4]) was determined as 682 nM; in assay [2] it was 2940 nM; in assay [3], 1830 nM. For the same compound, the TEC/Btk in assay [2] is 4.
Consider `CC#CC(=O)N1CC[C@@H](Nc2n[nH]c3nccc(-c4ccc(CNC(=O)c5ccc(C(F)(F)F)cc5)c(F)c4)c23)C1` [Example 110, N-{[4-(3-{[(3R)-1-(but-2-ynoyl)pyrrolidin-3-yl]amino}-1H-pyrazolo[3,4-b]pyridin-4-yl)-2-fluorophenyl]methyl}-4-(trifluoromethyl)benzamide], for which the IC50 in assay [1] (setting [5]) was less than 10 nM; in assay [1] (setting [4]), 1.89 nM; in assay [2], 167 nM; in assay [3] it was 66 nM. For the same compound, the TEC/Btk in assay [2] was determined as 88.
`CC(C)(C)c1nc(C(=O)NCc2ccc(-c3ccnc4[nH]nc(N[C@@H]5CCCN(C=O)C5)c34)cc2F)no1` [Example 90, 5-tert-butyl-N-{[2-fluoro-4-(3-{[(3R)-1-formylpiperidin-3-yl]amino}-1H-pyrazolo[3,4-b]pyridin-4-yl)phenyl]methyl}-1,2,4-oxadiazole-3-carboxamide]: the IC50 was less than 10 nM in assay [1] (setting [5]), 9.44 nM in assay [1] (setting [4]), 2250 nM in assay [2] and 2620 nM in assay [3]. Further, in assay [2], the TEC/Btk is recorded as 238.
In the case of `C=CC(=O)N1CC[C@@H](Nc2n[nH]c3nccc(-c4ccc(CNC(=O)c5ccc(C6CC6)cc5)c(F)c4)c23)C1` [Compound 40, 4-cyclopropyl-N-{[2-fluoro-4-(3-{[(3R)-1-(prop-2-enoyl)pyrrolidin-3-yl]amino}-1H-pyrazolo[3,4-b]pyridin-4-yl)phenyl]methyl}benzamide], the results for the IC50 in assay [1] (setting [4]), in assay [2] and in assay [3] were 1.27 nM, 47 nM and 54 nM, respectively. For the same compound, the TEC/Btk in assay [2] came out at 37.
As for `CC(C)(C)c1n[nH]c(C(=O)NCc2ccc(-c3ccnc4[nH]nc(N[C@@H]5CCNC5)c34)cc2F)n1` [Example 78, 3-tert-butyl-N-{[2-fluoro-4-(3-{[(3R)-pyrrolidin-3-yl]amino}-1H-pyrazolo[3,4-b]pyridin-4-yl)phenyl]methyl}-1H-1,2,4-triazole-5-carboxamide], the half-inhibitory concentration (IC50) in assay [1] (setting [4]), in assay [2] and in assay [3] was greater than 10000 nM each time.
As for `CC(=O)N[C@@H]1CCN(c2n[nH]c3nccc(-c4ccc(CNC(=O)c5nc(C(C)(C)C)no5)c(F)c4)c23)C1` [Example 373, N-[(4-{3-[(3R)-3-acetamidopyrrolidin-1-yl]-1H-pyrazolo[3,4-b]pyridin-4-yl}-2-fluorophenyl)methyl]-3-tert-butyl-1,2,4-oxadiazole-5-carboxamide], the IC50 came out at 0.0597 nM in assay [1] (setting [4]), 30.5 nM in assay [2] and 36 nM in assay [3].
Take `O=c1c2c(F)cc(C3CC3)cc2ccn1-c1cccc(-c2ccnc3[nH]nc(N[C@@H]4CCNC4)c23)c1CO` [Compound 17, (R)-6-cyclopropyl-8-fluoro-2-(2-(hydroxymethyl)-3-(3-(pyrrolidin-3-ylamino)-1H-pyrazolo[3,4-b]pyridin-4-yl)phenyl)isoquinolin-1 (2H)-one]: the IC50 in assay [1] (setting [4]) stood at 312 nM; in assay [2], 5920 nM; in assay [3], 6410 nM. Also, the TEC/Btk in assay [2] was determined as 19.
Consider `CC(C)(C)c1nc(C(=O)NCc2ccc(-c3ccnc4[nH]nc(N[C@H]5CCN(C=O)C5)c34)cc2F)no1` [Example 93, 5-tert-butyl-N-{[2-fluoro-4-(3-{[(3S)-1-formylpyrrolidin-3-yl]amino}-1H-pyrazolo[3,4-b]pyridin-4-yl)phenyl]methyl}-1,2,4-oxadiazole-3-carboxamide], for which the IC50 in assay [1] (setting [4]) was found to be 11.7 nM; in assay [2] it was 3770 nM; in assay [3] it was 3340 nM. Also, in assay [2], the TEC/Btk came to 322.
On to `C=CC(=O)N1CC[C@@H](Nc2n[nH]c3nccc(-c4ccc(CN5CCn6c(cc7c6CC(C)(C)C7)C5=O)c(F)c4)c23)C1` [Example 53], for which the IC50 in assay [1] (setting [5]) was less than 10 nM; in assay [1] (setting [4]), 0.623 nM; in assay [2], 152 nM; in assay [3], 310 nM. Also, the TEC/Btk in assay [2] came to 244.
For the compound `C=CC(=O)N1C[C@H](Nc2n[nH]c3nccc(-c4ccc(CNC(=O)c5cc(C(C)(C)C)on5)c(F)c4)c23)CC[C@@H]1C` [Example 146, 5-tert-butyl-N-{[2-fluoro-4-(3-{[(3R,6S)-6-methyl-1-(prop-2-enoyl)piperidin-3-yl]amino}-1H-pyrazolo[3,4-b]pyridin-4-yl)phenyl]methyl}-1,2-oxazole-3-carboxamide], the IC50 is less than 10 nM in assay [1] (setting [5]), 0.202 nM in assay [1] (setting [4]), 47 nM in assay [2] and 21 nM in assay [3]. Further, the TEC/Btk in assay [2] came out at 234.
On to `O=C(NCc1ccc(-c2ccnc3[nH]nc(N[C@@H]4CCNC4)c23)cc1F)c1ccccc1` [Compound 31, (R)—N-(2-fluoro-4-(3-(pyrrolidin-3-ylamino)-1H-pyrazolo[3,4-b]pyridin-4-yl)benzyl)benzamide], for which the IC50 in assay [1] (setting [4]) was greater than 10000 nM; in assay [2], 6410 nM; in assay [3], 1710 nM.
Take `CC(=O)N1CCC(Nc2n[nH]c3nccc(-c4ccc([C@@H](C)NC(=O)c5cc(C(C)(C)O)on5)cc4)c23)CC1` [Example 204, N-[(1R)-1-(4-{3-[(1-acetylpiperidin-4-yl)amino]-1H-pyrazolo[3,4-b]pyridin-4-yl}phenyl)ethyl]-5-(2-hydroxypropan-2-yl)-1,2-oxazole-3-carboxamide]: the IC50 was greater than 1000 nM in assay [1] (setting [4]), greater than 10000 nM in assay [2] and greater than 10000 nM in assay [3]. In addition, the TEC/Btk in assay [2] is greater than 10000.
Take `C=CC(=O)N[C@@H]1CCN(c2n[nH]c3nccc(-c4ccc(CNC(=O)c5nc6ccccc6o5)c(F)c4)c23)C1` [Example 395, N-{[2-fluoro-4-(3-{(3R)-3-[(prop-2-enoyl)amino]pyrrolidin-1-yl}-1H-pyrazolo[3,4-b]pyridin-4-yl)phenyl]methyl}-1,3-benzoxazole-2-carboxamide]: the 50% inhibitory concentration (IC50) in assay [1] (setting [4]) worked out at 1.19 nM; in assay [2], 52.6 nM; in assay [3], 30.3 nM.
On the same counts, the results for `CN(Cc1ccc(-c2ccnc3[nH]nc(N4CC[C@@H](N)C4)c23)cc1F)C(=O)c1nc(C(C)(C)C)no1` [Example 334, (R)-N-({4-[3-(3-aminopyrrolidin-1-yl)-1H-pyrazolo[3,4-b]pyridin-4-yl]-2-fluorophenyl}methyl)-3-tert-butyl-N-methyl-1,2,4-oxadiazole-5-carboxamide] are 1.43 nM, 4170 nM and 1920 nM.
Turning to `C[C@H]1CC[C@@H](Nc2n[nH]c3nccc(-c4ccc(CNC(=O)c5noc(C(C)(C)C)n5)c(F)c4)c23)CN1CC#N` [Example 143, 5-tert-butyl-N-{[4-(3-{[(3R,6S)-1-(cyanomethyl)-6-methylpiperidin-3-yl]amino}-1H-pyrazolo[3,4-b]pyridin-4-yl)-2-fluorophenyl]methyl}-1,2,4-oxadiazole-3-carboxamide], the half-inhibitory concentration (IC50) in assay [1] (setting [5]) was less than 10 nM; in assay [1] (setting [4]) it was 7.08 nM; in assay [2], 2230 nM; in assay [3] it was 2930 nM. In addition, in assay [2], the TEC/Btk is recorded as 315.
